Laboratory results taken from patent publication US20240327382A1 (ALMAC DISCOVERY LIMITED, priority 2021, published 2024).

Each compound was assayed against T1, Full-length USP19 (Homo sapiens, UniProt O94966) (assay: USP19 fluorescence polarisation (FP) assay, Ubiquitin-Lys-TAMRA substrate). Conditions: average of at least two duplicate experiments.
T1 construct: Full-length USP19 was purchased from Boston Biochem (E-576); purchased Boston Biochem E-576
T1 sequence (O94966 1-1318): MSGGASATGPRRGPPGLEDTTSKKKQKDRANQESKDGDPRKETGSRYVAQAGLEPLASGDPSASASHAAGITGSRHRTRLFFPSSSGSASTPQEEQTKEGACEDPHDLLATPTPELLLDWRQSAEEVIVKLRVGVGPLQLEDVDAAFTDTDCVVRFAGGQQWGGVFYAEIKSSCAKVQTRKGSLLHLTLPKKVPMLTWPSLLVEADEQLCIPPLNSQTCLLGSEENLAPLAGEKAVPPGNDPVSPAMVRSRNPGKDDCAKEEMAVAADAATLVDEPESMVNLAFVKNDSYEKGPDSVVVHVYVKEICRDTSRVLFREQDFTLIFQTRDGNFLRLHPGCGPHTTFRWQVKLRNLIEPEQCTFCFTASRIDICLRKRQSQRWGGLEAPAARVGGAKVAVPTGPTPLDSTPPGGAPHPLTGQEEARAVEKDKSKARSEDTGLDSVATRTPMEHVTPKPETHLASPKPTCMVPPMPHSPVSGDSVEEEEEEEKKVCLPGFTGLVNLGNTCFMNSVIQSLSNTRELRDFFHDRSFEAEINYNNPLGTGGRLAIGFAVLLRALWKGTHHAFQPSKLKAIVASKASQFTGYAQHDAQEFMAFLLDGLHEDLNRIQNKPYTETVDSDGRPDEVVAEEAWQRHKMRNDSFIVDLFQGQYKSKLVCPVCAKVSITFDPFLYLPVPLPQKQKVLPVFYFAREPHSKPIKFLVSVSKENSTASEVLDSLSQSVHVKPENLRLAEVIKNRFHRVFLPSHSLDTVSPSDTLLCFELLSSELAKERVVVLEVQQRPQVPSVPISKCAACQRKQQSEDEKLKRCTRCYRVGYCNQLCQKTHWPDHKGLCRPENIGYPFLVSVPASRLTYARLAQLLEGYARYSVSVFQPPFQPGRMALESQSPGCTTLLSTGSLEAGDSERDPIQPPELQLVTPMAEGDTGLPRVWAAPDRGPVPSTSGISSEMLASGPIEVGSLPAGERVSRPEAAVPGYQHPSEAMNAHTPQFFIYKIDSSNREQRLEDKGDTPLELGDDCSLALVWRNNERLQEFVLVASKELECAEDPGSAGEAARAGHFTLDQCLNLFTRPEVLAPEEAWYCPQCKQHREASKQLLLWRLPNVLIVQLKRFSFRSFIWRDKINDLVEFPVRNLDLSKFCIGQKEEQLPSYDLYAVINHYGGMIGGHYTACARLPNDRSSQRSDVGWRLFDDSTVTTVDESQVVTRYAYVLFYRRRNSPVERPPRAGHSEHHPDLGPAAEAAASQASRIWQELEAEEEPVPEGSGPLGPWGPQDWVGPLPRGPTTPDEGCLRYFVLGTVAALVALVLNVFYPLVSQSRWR
Assay type: biochemical
Method in brief: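 Fluorescence polarisation (excitation 530 nm, parallel and perpendicular emission at 575 nm) was recorded every 15 min for 90 min after adding the ubiquitin-Lys-TAMRA isopeptide (500 nM as dispensed). Beforehand, the full-length enzyme (2.5 nM as dispensed) sat 30 min at RT with compound diluted from 200 μM to 2 μM in HEPES pH 7.4 buffer with 150 mM NaCl, 5 mM DTT, 0.05% BSA and 0.05% CHAPS. Values normalised to uninhibited wells gave IC50s by non-linear fitting, each the mean of two or more duplicate runs.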

IC50 [nM] | Structure (SMILES)
< 10 | Cc1cc(C)nc(CN[C@@H]2CCN(C(=O)N3CC[C@@H](Cn4cnc(-c5ccccc5)cc4=O)C4(CCCC4)C3)[C@H](c3ccccc3)C2)n1 [Example 194, 3-(((R)-7-((2S,4R)-4-(((4,6-Dimethylpyrimidin-2-yl)methyl)amino)-2-phenylpiperidine-1-carbonyl)-7-azaspiro[4.5]decan-10-yl)methyl)-6-phenylpyrimidin-4(3H)-one]
< 10 | COCCN[C@@H]1CCN(C(=O)N2CC[C@@H](Cn3cnc(-c4ccccc4)cc3=O)C3(CCCC3)C2)[C@H](c2cccc(F)c2)C1 [Example 195, 3-(((R)-7-((2S,4R)-2-(3-Fluorophenyl)-4-((2-methoxyethyl)amino)piperidine-1-carbonyl)-7-azaspiro[4.5]decan-10-yl)methyl)-6-phenylpyrimidin-4(3H)-one]
< 10 | O=C(N1CC[C@@H](Cn2cnc(-c3ccccc3)cc2=O)C2(CCCC2)C1)N1CC[C@@H](NCCF)C[C@H]1c1cccc(F)c1 [Example 196, 3-(((R)-7-((2S,4R)-4-((2-Fluoroethyl)amino)-2-(3-fluorophenyl)piperidine-1-carbonyl)-7-azaspiro[4.5]decan-10-yl)methyl)-6-phenylpyrimidin-4(3H)-one]
10 to 100 | O=C1OCCN1[C@@H]1CCN(C(=O)N2CC[C@@H](Cn3cnc(-c4ccccc4)cc3=O)C3(CCCC3)C2)[C@H](c2cccc(F)c2)C1 [Example 197, 3-((2S,4R)-2-(3-Fluorophenyl)-1-((R)-10-((6-oxo-4-phenylpyrimidin-1(6H)-yl)methyl)-7-azaspiro[4.5]decane-7-carbonyl)piperidin-4-yl)oxazolidin-2-one]
< 10 | CN[C@@H]1CCN(C(=O)N2CC[C@@H](Cn3cnc4ccc(Cl)cc4c3=O)C3(CCCC3)C2)[C@H](c2cc(F)ccc2F)C1 [Example 198, 6-Chloro-3-(((R)-7-((2S,4R)-2-(2,5-difluorophenyl)-4-(methylamino)piperidine-1-carbonyl)-7-azaspiro[4.5]decan-10-yl)methyl)quinazolin-4(3H)-one]
< 10 | CN[C@@H]1CCN(C(=O)N2CC[C@@H](Cn3cnc4ccccc4c3=O)C3(CCCC3)C2)[C@H](c2cc(F)ccc2F)C1 [Example 199, 3-(((R)-7-((2S,4R)-2-(2,5-Difluorophenyl)-4-(methylamino)piperidine-1-carbonyl)-7-azaspiro[4.5]decan-10-yl)methyl)quinazolin-4(3H)-one]
10 to 100 | C[C@H]1CN(C(=O)N2CC[C@@H](Cn3cnc4ccc(F)cc4c3=O)C3(CCCC3)C2)[C@H](c2cc(F)ccc2F)CO1 [Example 200, 3-(((R)-7-((2S,5R)-5-(2,5-Difluorophenyl)-2-methylmorpholine-4-carbonyl)-7-azaspiro[4.5]decan-10-yl)methyl)-6-fluoroquinazolin-4(3H)-one]
< 10 | C[C@H]1CN(C(=O)N2CC[C@@H](Cn3cnc(-c4ccccc4)cc3=O)C3(CCCC3)C2)[C@H](c2cc(F)ccc2F)CO1 [Example 201, 3-(((R)-7-((2,5R)-5-(2,5-Difluorophenyl)-2-methylmorpholine-4-carbonyl)-7-azaspiro[4.5]decan-10-yl)methyl)-6-phenylpyrimidin-4(3H)-one]
